{
  "source": "paper PMC9569420",
  "about": "(Communications Biology, 2022)",
  "key": {"ACK1": {"molecular_target": "T1, ACK1 (Homo sapiens, UniProt Q07912)", "T1 construct": "purchased Reaction Biology Corporation", "test": "HotSpot kinase assay", "type": "biochemical", "settings": "read-out: % Enzyme Activity (relative to DMSO controls)"}, "BMPR2": {"molecular_target": "T2, BMPR2 (Homo sapiens, UniProt Q13873)", "T2 construct": "purchased Reaction Biology Corporation", "T2 sequence (Q13873 27-1038)": "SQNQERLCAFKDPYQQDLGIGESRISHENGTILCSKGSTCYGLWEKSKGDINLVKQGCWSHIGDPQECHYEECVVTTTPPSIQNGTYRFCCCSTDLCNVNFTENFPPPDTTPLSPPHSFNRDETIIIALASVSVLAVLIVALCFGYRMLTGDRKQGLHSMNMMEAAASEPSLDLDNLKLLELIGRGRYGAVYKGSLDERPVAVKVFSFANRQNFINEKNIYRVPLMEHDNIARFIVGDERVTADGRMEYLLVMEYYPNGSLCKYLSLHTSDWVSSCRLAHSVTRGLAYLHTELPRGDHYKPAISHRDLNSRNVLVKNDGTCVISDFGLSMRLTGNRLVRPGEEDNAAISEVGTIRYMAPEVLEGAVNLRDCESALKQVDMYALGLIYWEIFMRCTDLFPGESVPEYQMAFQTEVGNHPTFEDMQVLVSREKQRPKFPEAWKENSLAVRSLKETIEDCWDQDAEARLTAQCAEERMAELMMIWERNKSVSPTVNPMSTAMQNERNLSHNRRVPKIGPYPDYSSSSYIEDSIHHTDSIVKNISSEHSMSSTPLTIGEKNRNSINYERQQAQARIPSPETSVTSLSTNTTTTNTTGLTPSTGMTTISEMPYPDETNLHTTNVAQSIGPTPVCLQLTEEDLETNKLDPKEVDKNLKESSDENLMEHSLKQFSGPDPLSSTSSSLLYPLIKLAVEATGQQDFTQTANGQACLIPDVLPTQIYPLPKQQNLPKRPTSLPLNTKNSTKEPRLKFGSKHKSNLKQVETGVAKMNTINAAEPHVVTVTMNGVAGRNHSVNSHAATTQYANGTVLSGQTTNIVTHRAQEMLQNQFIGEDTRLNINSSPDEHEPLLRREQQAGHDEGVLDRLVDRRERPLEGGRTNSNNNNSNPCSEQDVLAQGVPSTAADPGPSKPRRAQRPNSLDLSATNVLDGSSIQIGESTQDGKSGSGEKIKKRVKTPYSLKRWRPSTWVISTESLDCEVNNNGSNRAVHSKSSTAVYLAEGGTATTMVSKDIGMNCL", "test": "HotSpot kinase assay", "type": "biochemical", "settings": "read-out: % Enzyme Activity (relative to DMSO controls)"}, "c-MET": {"molecular_target": "T3, c-MET (Homo sapiens, UniProt P08581)", "T3 construct": "purchased Reaction Biology Corporation", "T3 sequence (P08581 25-1390)": "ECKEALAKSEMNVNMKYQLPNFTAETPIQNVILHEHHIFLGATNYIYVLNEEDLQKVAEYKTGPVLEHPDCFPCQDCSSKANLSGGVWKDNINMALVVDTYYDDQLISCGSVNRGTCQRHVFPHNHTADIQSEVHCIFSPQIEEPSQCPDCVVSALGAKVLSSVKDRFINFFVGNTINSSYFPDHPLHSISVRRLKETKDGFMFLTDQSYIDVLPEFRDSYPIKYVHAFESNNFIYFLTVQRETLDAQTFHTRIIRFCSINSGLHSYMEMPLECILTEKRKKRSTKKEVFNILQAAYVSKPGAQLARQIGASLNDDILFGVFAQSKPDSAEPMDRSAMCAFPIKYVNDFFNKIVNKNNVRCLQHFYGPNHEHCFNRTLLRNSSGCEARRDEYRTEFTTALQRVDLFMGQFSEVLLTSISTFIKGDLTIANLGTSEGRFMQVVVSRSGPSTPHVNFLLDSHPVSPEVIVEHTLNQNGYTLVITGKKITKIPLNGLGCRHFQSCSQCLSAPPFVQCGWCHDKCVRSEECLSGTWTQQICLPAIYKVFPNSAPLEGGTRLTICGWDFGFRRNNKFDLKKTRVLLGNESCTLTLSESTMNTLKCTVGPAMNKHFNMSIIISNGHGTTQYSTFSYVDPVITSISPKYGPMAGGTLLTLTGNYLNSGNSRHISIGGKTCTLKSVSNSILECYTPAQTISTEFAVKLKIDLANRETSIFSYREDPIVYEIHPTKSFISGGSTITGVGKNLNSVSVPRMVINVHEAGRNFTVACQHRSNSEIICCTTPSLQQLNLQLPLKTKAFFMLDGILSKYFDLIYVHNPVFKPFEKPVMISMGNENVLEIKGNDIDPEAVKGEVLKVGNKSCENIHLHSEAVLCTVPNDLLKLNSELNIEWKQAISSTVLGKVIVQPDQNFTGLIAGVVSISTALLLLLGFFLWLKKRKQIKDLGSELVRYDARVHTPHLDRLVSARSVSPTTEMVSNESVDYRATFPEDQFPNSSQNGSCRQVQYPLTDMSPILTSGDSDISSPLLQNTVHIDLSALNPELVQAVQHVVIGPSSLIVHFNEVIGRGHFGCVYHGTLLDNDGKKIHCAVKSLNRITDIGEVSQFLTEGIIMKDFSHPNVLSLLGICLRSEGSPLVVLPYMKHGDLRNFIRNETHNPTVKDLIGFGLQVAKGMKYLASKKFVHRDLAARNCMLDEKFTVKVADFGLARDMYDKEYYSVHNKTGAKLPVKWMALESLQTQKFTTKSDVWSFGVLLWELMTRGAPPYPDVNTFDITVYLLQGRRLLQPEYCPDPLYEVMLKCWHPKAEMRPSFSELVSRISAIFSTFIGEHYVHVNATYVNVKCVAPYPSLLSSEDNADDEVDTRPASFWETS", "test": "biochemical", "settings": "read-out: % Enzyme Activity (relative to DMSO controls)"}, "CDK2/cyclin A": {"molecular_target": "T4, CDK2/cyclin A (Homo sapiens, UniProt P24941)", "T4 construct": "purchased Reaction Biology Corporation", "test": "HotSpot kinase assay", "type": "biochemical", "settings": "read-out: % Enzyme Activity (relative to DMSO controls)"}, "CDK4/cyclin D1": {"molecular_target": "T5, CDK4/cyclin D1 (Homo sapiens, UniProt P11802)", "T5 construct": "purchased Reaction Biology Corporation", "test": "HotSpot kinase assay", "type": "biochemical", "settings": "read-out: % Enzyme Activity (relative to DMSO controls)"}, "CK1a1": {"molecular_target": "T6, CK1a1 (Homo sapiens, UniProt P48729)", "T6 construct": "purchased Reaction Biology Corporation", "test": "HotSpot kinase assay", "type": "biochemical", "settings": "read-out: % Enzyme Activity (relative to DMSO controls)"}, "EPHA5": {"molecular_target": "T7, EPHA5 (Homo sapiens, UniProt P54756)", "T7 construct": "purchased Reaction Biology Corporation", "test": "HotSpot kinase assay", "type": "biochemical", "settings": "read-out: % Enzyme Activity (relative to DMSO controls)"}, "ERBB2/HER2": {"molecular_target": "T8, ERBB2/HER2 (Homo sapiens, UniProt P04626)", "T8 construct": "purchased Reaction Biology Corporation", "test": "biochemical", "settings": "read-out: % Enzyme Activity (relative to DMSO controls)"}, "GRK2": {"molecular_target": "T9, GRK2 (Homo sapiens, UniProt P25098)", "T9 construct": "purchased Reaction Biology Corporation", "test": "biochemical", "settings": "read-out: % Enzyme Activity (relative to DMSO controls)"}, "GSK3b": {"molecular_target": "T10, GSK3b (Homo sapiens, UniProt P49841)", "T10 construct": "purchased Reaction Biology Corporation", "T10 sequence (P49841 whole entry)": "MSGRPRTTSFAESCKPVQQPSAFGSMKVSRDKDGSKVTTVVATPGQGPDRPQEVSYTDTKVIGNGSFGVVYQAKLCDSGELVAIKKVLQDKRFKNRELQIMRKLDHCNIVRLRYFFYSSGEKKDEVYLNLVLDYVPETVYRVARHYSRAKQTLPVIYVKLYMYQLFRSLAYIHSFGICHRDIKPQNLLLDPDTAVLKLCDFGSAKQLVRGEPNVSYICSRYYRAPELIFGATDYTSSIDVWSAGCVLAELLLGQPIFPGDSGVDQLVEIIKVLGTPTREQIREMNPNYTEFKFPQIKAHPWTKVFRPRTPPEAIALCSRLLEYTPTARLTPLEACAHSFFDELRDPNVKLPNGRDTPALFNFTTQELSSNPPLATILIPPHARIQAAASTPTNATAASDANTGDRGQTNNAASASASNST", "test": "biochemical", "settings": "read-out: % Enzyme Activity (relative to DMSO controls)"}, "ITK": {"molecular_target": "T11, ITK (Homo sapiens, UniProt Q08881)", "T11 construct": "purchased Reaction Biology Corporation", "test": "HotSpot kinase assay", "type": "biochemical", "settings": "read-out: % Enzyme Activity (relative to DMSO controls)"}, "LATS1": {"molecular_target": "T12, LATS1 (Homo sapiens, UniProt O95835)", "T12 construct": "purchased Reaction Biology Corporation", "T12 sequence (O95835 whole entry)": "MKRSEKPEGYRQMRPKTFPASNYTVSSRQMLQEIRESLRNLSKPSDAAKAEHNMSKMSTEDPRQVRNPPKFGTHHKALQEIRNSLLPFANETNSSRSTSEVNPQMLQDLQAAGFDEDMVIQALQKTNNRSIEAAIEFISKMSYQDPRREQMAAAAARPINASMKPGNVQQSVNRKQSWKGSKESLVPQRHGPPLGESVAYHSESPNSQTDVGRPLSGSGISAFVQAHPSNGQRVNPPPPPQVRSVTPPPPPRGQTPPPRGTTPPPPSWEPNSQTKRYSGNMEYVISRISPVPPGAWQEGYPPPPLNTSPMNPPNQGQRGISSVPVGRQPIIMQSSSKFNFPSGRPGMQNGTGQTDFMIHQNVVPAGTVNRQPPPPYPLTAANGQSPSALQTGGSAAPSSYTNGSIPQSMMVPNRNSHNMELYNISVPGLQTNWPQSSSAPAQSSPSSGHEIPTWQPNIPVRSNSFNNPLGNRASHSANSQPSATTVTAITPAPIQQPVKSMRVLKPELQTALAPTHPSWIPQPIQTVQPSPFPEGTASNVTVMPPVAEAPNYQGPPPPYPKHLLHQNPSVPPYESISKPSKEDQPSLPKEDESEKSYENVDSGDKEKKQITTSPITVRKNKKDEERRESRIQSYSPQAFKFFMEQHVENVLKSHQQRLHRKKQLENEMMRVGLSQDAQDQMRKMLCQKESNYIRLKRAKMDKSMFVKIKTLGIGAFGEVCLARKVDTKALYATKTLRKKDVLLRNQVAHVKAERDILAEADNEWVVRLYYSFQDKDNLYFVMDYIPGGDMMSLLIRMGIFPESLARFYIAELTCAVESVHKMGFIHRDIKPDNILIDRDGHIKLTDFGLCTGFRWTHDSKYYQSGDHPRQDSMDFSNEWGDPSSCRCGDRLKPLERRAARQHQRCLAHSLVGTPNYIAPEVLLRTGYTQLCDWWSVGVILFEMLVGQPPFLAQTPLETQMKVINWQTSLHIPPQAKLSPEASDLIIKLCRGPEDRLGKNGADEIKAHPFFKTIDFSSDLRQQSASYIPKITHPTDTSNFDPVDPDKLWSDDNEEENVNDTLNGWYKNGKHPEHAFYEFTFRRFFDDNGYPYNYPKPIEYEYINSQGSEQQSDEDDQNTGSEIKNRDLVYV", "test": "HotSpot kinase assay", "type": "biochemical", "settings": "read-out: % Enzyme Activity (relative to DMSO controls)"}, "MUSK": {"molecular_target": "T13, MUSK (Homo sapiens, UniProt O15146)", "T13 construct": "purchased Reaction Biology Corporation", "test": "HotSpot kinase assay", "type": "biochemical", "settings": "read-out: % Enzyme Activity (relative to DMSO controls)"}, "NEK2": {"molecular_target": "T14, NEK2 (Homo sapiens, UniProt P51955)", "T14 construct": "purchased Reaction Biology Corporation", "test": "HotSpot kinase assay", "type": "biochemical", "settings": "read-out: % Enzyme Activity (relative to DMSO controls)"}, "PKAcb": {"molecular_target": "T15, PKAcb (Homo sapiens, UniProt P22694)", "T15 construct": "purchased Reaction Biology Corporation", "test": "HotSpot kinase assay", "type": "biochemical", "settings": "read-out: % Enzyme Activity (relative to DMSO controls)"}, "RIPK5": {"molecular_target": "T16, RIPK5 (Homo sapiens, UniProt Q6XUX3)", "T16 construct": "purchased Reaction Biology Corporation", "test": "HotSpot kinase assay", "type": "biochemical", "settings": "read-out: % Enzyme Activity (relative to DMSO controls)"}, "RSK1": {"molecular_target": "T17, RSK1 (Homo sapiens, UniProt Q15418)", "T17 construct": "purchased Reaction Biology Corporation", "T17 sequence (Q15418 whole entry)": "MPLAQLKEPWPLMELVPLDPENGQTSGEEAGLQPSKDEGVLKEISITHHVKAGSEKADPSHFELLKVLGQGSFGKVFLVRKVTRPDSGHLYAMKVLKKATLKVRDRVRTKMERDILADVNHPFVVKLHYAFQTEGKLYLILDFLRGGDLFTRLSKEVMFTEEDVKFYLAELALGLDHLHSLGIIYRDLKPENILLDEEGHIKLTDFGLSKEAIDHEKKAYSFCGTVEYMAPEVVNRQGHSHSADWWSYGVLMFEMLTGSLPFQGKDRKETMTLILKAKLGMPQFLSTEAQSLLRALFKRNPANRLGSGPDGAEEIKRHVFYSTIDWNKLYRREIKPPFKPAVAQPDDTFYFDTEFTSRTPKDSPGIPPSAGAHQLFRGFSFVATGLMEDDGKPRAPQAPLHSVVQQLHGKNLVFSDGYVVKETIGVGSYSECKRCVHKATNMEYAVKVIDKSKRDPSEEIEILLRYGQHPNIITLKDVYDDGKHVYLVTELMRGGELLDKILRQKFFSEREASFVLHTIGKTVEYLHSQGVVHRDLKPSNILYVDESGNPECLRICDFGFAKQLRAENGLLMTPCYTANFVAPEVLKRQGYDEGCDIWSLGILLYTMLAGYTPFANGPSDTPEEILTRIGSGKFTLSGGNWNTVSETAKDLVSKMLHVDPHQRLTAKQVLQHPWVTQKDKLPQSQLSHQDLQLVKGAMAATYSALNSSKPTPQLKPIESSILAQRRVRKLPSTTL", "test": "HotSpot kinase assay", "type": "biochemical", "settings": "read-out: % Enzyme Activity (relative to DMSO controls)"}, "SSTK/TSSK6": {"molecular_target": "T18, SSTK/TSSK6 (Homo sapiens, UniProt Q9BXA6)", "T18 construct": "purchased Reaction Biology Corporation", "T18 sequence (Q9BXA6 whole entry)": "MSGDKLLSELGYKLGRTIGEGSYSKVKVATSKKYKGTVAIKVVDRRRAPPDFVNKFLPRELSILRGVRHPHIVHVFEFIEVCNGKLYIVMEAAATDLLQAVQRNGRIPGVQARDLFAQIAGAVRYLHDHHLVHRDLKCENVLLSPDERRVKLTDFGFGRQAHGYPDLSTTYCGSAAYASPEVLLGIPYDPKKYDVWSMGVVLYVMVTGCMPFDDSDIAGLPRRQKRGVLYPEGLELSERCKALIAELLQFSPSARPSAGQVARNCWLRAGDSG", "test": "HotSpot kinase assay", "type": "biochemical", "settings": "read-out: % Enzyme Activity (relative to DMSO controls)"}, "STK22D/TSSK1": {"molecular_target": "T19, STK22D/TSSK1 (Homo sapiens, UniProt Q9BXA7)", "T19 construct": "purchased Reaction Biology Corporation", "test": "HotSpot kinase assay", "type": "biochemical", "settings": "read-out: % Enzyme Activity (relative to DMSO controls)"}, "STK39/STLK3": {"molecular_target": "T20, STK39/STLK3 (Homo sapiens, UniProt Q9UEW8)", "T20 construct": "purchased Reaction Biology Corporation", "test": "HotSpot kinase assay", "type": "biochemical", "settings": "read-out: % Enzyme Activity (relative to DMSO controls)"}, "TLK2": {"molecular_target": "T21, TLK2 (Homo sapiens, UniProt Q86UE8)", "T21 construct": "purchased Reaction Biology Corporation", "test": "HotSpot kinase assay", "type": "biochemical", "settings": "read-out: % Enzyme Activity (relative to DMSO controls)"}, "WNK2": {"molecular_target": "T22, WNK2 (Homo sapiens, UniProt Q9Y3S1)", "T22 construct": "purchased Reaction Biology Corporation", "test": "HotSpot kinase assay", "type": "biochemical", "settings": "read-out: % Enzyme Activity (relative to DMSO controls)"}, "EIF2AK3": {"molecular_target": "T23, EIF2AK3 (Homo sapiens, UniProt Q9NZJ5)", "T23 construct": "purchased Reaction Biology Corporation", "test": "HotSpot kinase assay", "type": "biochemical", "settings": "read-out: % Enzyme Activity (relative to DMSO controls)"}, "HSV-2(G)": {"tested_on": "HSV-2(G)", "test": "nuclear transport of VP-16 (immunoblot of nuclear extracts)", "type": "cell-based", "settings": "HaCat and primary vaginal cells, 1 h; CIMSS 10 μM, antibody 2 μg/ml", "method": "To quantify viral entry, cells were synchronously infected by allowing virus to bind to cells at 4°C for 4 h, washed, and then transferred to 37 °C. CIMSS or control DMSO was added at the time of temperature shift. At indicated times post-temperature shift, the cells were treated with a low pH buffer to inactivate virus that had not penetrated, washed, overlaid with medium containing methyl cellulose and viral plaques were counted at 48 h. Entry was also assessed by immunoblotting nuclear extracts for VP16. […] Nuclear extracts were prepared after 1 h and analyzed by western blot with antibodies targeting VP16, histone H1 and golgin-97[5]. The non-nuclear fraction was also probed for golgin-97 as a positive control. […] After 1 or 4 h of incubation, the cells were fixed. Plasma membranes were stained using Image -IT^TM LIVE Plasma Membrane kit and nuclei were stained with DAPI (Thermo Fisher Scientific, Cat 134406). The percentage of GFP + nuclei was determined by counting ~200 cells over 3–4 fields. Images were obtained with Leica SP8 microscope (objective 63 × 1.4); xz images were captured with optical slice 0.6 µm, 25–30 slices per image."}},
  "data": [
    {"smiles": "CO[C@@H]1[C@H](N(C)C(=O)CCC(=O)NCc2cn(CCCS(=O)(=O)O)nn2)C[C@H]2O[C@]1(C)n1c3ccccc3c3c4c(c5c6ccccc6n2c5c31)C(=O)NC4", "note": "[CIMSS]", "values": [
      {"measurement": "remaining activity at 10 µM", "setting": "ACK1", "result": 7.33, "unit": "%"},
      {"measurement": "remaining activity at 10 µM", "setting": "BMPR2", "result": 50.4, "unit": "%"},
      {"measurement": "remaining activity at 10 µM", "setting": "c-MET", "result": 12.4, "unit": "%"},
      {"measurement": "remaining activity at 10 µM", "setting": "CDK2/cyclin A", "result": 5.14, "unit": "%"},
      {"measurement": "remaining activity at 10 µM", "setting": "CDK4/cyclin D1", "result": 68.8, "unit": "%"},
      {"measurement": "remaining activity at 10 µM", "setting": "CK1a1", "result": 98.3, "unit": "%"},
      {"measurement": "remaining activity at 10 µM", "setting": "EPHA5", "result": 52.7, "unit": "%"},
      {"measurement": "remaining activity at 10 µM", "setting": "ERBB2/HER2", "result": 35.9, "unit": "%"},
      {"measurement": "remaining activity at 10 µM", "setting": "GRK2", "result": 29.5, "unit": "%"},
      {"measurement": "remaining activity at 10 µM", "setting": "GSK3b", "result": 2.85, "unit": "%"},
      {"measurement": "remaining activity at 10 µM", "setting": "ITK", "result": 4.12, "unit": "%"},
      {"measurement": "remaining activity at 10 µM", "setting": "LATS1", "result": 9.89, "unit": "%"},
      {"measurement": "remaining activity at 10 µM", "setting": "MUSK", "result": 3.33, "unit": "%"},
      {"measurement": "remaining activity at 10 µM", "setting": "NEK2", "result": 18.8, "unit": "%"},
      {"measurement": "remaining activity at 10 µM", "setting": "PKAcb", "result": 1.62, "unit": "%"},
      {"measurement": "remaining activity at 10 µM", "setting": "RIPK5", "result": 22.7, "unit": "%"},
      {"measurement": "remaining activity at 10 µM", "setting": "RSK1", "result": 3.27, "unit": "%"},
      {"measurement": "remaining activity at 10 µM", "setting": "SSTK/TSSK6", "result": 95.7, "unit": "%"},
      {"measurement": "remaining activity at 10 µM", "setting": "STK22D/TSSK1", "result": 2.71, "unit": "%"},
      {"measurement": "remaining activity at 10 µM", "setting": "STK39/STLK3", "result": 19.6, "unit": "%"},
      {"measurement": "remaining activity at 10 µM", "setting": "TLK2", "result": 67, "unit": "%"},
      {"measurement": "remaining activity at 10 µM", "setting": "WNK2", "result": 71.9, "unit": "%"},
      {"measurement": "remaining activity at 10 µM", "setting": "EIF2AK3", "result": 61.6, "unit": "%"},
      {"measurement": "nuclear transport of VP-16", "setting": "HSV-2(G)", "result": "inhibited"}
    ]}
  ]
}
